Molecules are shown by their SMILES. pIC50: −log10 of the molar value.

The target of one assay is T1, human HPK1 protein (Homo sapiens, UniProt Q92918).
T1 construct: recombinant human HPK1 protein (a.a. 1-346) was expressed in Sf9 insect cells; GST (N); purchased Signalchem M23-11G; host or cells: Sf9 insect cells (baculovirus)
T1 sequence (Q92918 1-346): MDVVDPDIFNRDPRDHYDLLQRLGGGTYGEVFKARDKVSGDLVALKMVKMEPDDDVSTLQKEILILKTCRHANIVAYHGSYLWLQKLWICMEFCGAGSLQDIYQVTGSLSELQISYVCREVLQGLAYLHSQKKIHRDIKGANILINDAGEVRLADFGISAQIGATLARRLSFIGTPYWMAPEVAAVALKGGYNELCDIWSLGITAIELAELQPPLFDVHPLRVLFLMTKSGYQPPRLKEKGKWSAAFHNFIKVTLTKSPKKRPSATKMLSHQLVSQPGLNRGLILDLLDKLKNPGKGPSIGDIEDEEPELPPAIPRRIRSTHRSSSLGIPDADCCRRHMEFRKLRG
Nature of the assay: Human HPK1 protein TR-FRET assay. Type of assay: biochemical. The settings on record: 1 mM ATP, Table 19. The gist of the method:
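Read-out was TR-FRET using Eu-labeled anti-phospho-CREB (Ser133) antibody, with the 665/615 nm signal ratio normalised to DMSO-only wells and fitted by a 4-parameter logistic model for IC50. Reactions held 10 nM Sf9-expressed GST-HPK1 (a.a. 1-346), 100 nM CREBtide and 1 mM ATP, run 60 minutes at room temperature, pH 7.5.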
For orientation: In TR-FRET formats the signal depends on donor and acceptor labels being close together.
A word on the pIC50: it is −log10 of the IC50, conventionally taken in molar units. Consider `CCN1CCN(Cc2ccc(NC(=O)N3CCc4ccc(Oc5ccnc6[nH]ccc56)c(F)c4C3)cc2C(F)(F)F)CC1` [III-3], for which the pIC50 was over 6.30.
The same measure, in the same setting: the value for `CCC1CN(C(=O)Nc2ccc(CN3CCN(CC)CC3)c(C(F)(F)F)c2)Cc2cc(Oc3ccnc4[nH]c(C)cc34)cnc21` (single isomer, unassigned) [VII-22] was over 6.30; that for `Cc1cc2c(Oc3ccc4c(c3)[C@H](C)N(C(=O)Nc3cnc(OC5CCN(C)CC5C)c(C(F)(F)F)c3)CC4)ccnc2[nH]1` (stereo in doubt) [VI-4] was 5.30 to 6.30.
On the same count and under the same terms, the value for `CCN1CCN(Cc2ccc(NC(=O)N3CCc4ccc(Oc5ccnn6cc(-c7c[nH]cn7)cc56)cc4C3)cc2C(F)(F)F)CC1` [II-25] was over 6.30.
Still for that read-out and setting: the value for `CCN1CCN(Cc2ccc(NC(=O)N3Cc4cc(Oc5ccnc6[nH]c(C)cc56)c(F)cc4C(C)C3)cc2C(F)(F)F)CC1` (centres unmarked) [IV-29] was over 6.30; that for `C[C@H]1c2cc(Oc3ccnc4[nH]ccc34)ccc2CCN1C(=O)Nc1ccc(CN2CCNCC2)c(C(F)(F)F)c1` [V-1] was over 6.30.
Compound `C[C@H]1c2cc(Oc3ccnc4[nH]ccc34)ccc2CCN1C(=O)Nc1cnc(OC2CCN(C)CC2)c(C(F)(F)F)c1` [compound 7, (S)-7-((1H-pyrrolo[2,3-b]pyridin-4-yl)oxy)-1-methyl-N-(6-((1-methylpiperidin-4-yl)oxy)-5-(trifluoromethyl)pyridin-3-yl)-3,4-dihydroisoquinoline-2(1H)-carboxamide] had a pIC50 of over 6.30.
Same read-out and setting: the value for `CCN1CCN(Cc2ccc(NC(=O)N3CCc4ccc(Oc5ccnc6c5CCN6)cc4C3)cc2C(F)(F)F)CC1` [III-5] was over 6.30; that for `Cc1cc2c(Oc3cnc4c(c3)CN(C(=O)Nc3cnc(OC5CCN(C)CC5)c(C(F)(F)F)c3)CC4C)ccnc2[nH]1` (single isomer, unassigned) [VII-7] was over 6.30; that for `CCN1CCN(Cc2ccc(NC(=O)N3CCc4cc(F)c(Oc5ccnc6[nH]c(C)cc56)cc4C3C)cc2C(F)(F)F)CC1` (centres unmarked) [IV-26] was 5.30 to 6.30.
Compound `CCN1CCN(Cc2ccc(NC(=O)N3CCc4ccc(Oc5ccnc6[nH]c(-c7cnn(C)c7)cc56)cc4[C@@H]3C)cc2C(F)(F)F)CC1` [V-27] showed a pIC50 of over 6.30.
On the same count and under the same terms, the value for `CCN1CCN(Cc2ccc(NC(=O)N3CCc4ccc(Oc5cc(C)nc6[nH]ccc56)cc4C3)cc2C(F)(F)F)CC1` [III-12] was 5.30 to 6.30; that for `CCN1CCN(Cc2ccc(NC(=O)N3CCc4ccc(Oc5ccnc6[nH]ccc56)cc4[C@@H]3C)cc2C(F)(F)F)C(=O)C1` [V-20] was 5.30 to 6.30.
The same measure, in the same setting: the value for `CCN1CCN(Cc2ccc(NC(=O)N3CCc4cc(F)c(Oc5ccnn6cccc56)cc4C3C)cc2C(F)(F)F)CC1` (centres unmarked) [IV-30] was 5.30 to 6.30.
`CCN1CCN(Cc2ccc(NC(=O)N3CC(=O)c4ccc(Oc5ccnc6[nH]c(C)cc56)cc4C3)cc2C(F)(F)F)CC1` [compound 17, N-(4-((4-ethylpiperazin-1-yl)methyl)-3-(trifluoromethyl)phenyl)-7-((2-methyl-1H-pyrrolo[2,3-b]pyridin-4-yl)oxy)-4-oxo-3,4-dihydroisoquinoline-2(1H)-carboxamide] gave a pIC50 of over 6.30.
Same read-out and setting: the value for `Cc1cc2c(Oc3ccc4c(c3)[C@H](C)N(C(=O)Nc3cnc(OC5CCN(C)CC5F)c(C(F)(F)F)c3)CC4)ccnc2[nH]1` (stereo in doubt) [VI-11] was 5.30 to 6.30; that for `CCN1CCN(Cc2ccc(NC(=O)N3CCc4cc(F)c(Oc5ccnn6cccc56)cc4C3C)cc2C(F)(F)F)CC1` (centres unmarked) [IV-32] was under 5.00; that for `CCN1CCN(Cc2ccc(NC(=O)N3CCc4ccc(Oc5ccnc6[nH]ccc56)cc4[C@@H]3C)cc2C(F)(F)F)CC1` [compound 6, (S)-7-((1H-Pyrrolo[2,3-b]pyridin-4-yl)oxy)-N-(4-((4-ethylpiperazin-1-yl)methyl)-3-(trifluoromethyl)phenyl)-1-methyl-3,4-dihydroisoquinoline-2(1H)-carboxamide] was over 6.30.
Still for that read-out and setting: the value for `CCN1CCN(Cc2ccc(NC(=O)N3CCc4ncc(Oc5ncnc6[nH]ccc56)cc4C3)cc2C(F)(F)F)CC1` [VII-2] was 5.30 to 6.30.
Still for that read-out and setting: the value for `C[C@H]1c2cc(Oc3ccnc4[nH]ccc34)ccc2CCN1C(=O)Nc1ccc(OC2CCN(C)CC2)c(C(F)F)c1` [V-15] was 5.30 to 6.30.
The compound `CCN1CCN(Cc2ccc(NC(=O)N3CCc4ccc(Oc5ncnn6cc(C)cc56)cc4C3)cc2C(F)(F)F)CC1` [II-7] showed a pIC50 of over 6.30.

The same assay, now with this note: 1 mM ATP, Table 20.
In turn, `CCN1CCN(Cc2ccc(NC(=O)N3CCc4ccc(-c5ccc6cc(NC)ncc6c5)cc4C3)cc2C(F)(F)F)CC1` [XI-1] gave a negative logarithm of the IC50 (pIC50) of 5.30 to 6.30.
Same read-out and setting: the value for `CC[C@H]1CN(C(=O)Nc2ccc(CN3CCN(C)CC3)c(C(F)(F)F)c2)Cc2cc(Oc3ccnc4[nH]c(C(=O)N(C)CCO)cc34)cnc21` [XIV-105] was over 6.30; that for `CN1CCN(Cc2ccc(NC(=O)N3Cc4cc(Oc5ccnc6[nH]c(C(=O)N(C)C)cc56)ccc4C(C(F)(F)F)C3)cc2C(F)(F)F)CC1` (centres unmarked) [XVIII-13] was over 6.30.
On the same count and under the same terms, the value for `CCC1CN(C(=O)Nc2ccc(CN3CCN(CC)CC3)c(C(F)(F)F)c2)Cc2cc(Oc3ncnc4[nH]c(C)cc34)cnc21` (centres unmarked) [XIV-3] was over 6.30; that for `C[C@H]1CN(C(=O)Nc2ccc(CN3CCN(C)CC3)c(C(F)(F)F)c2)Cc2cc(Oc3ccnc4[nH]c(C5(O)CC5)cc34)cnc21` [XIV-97] was over 6.30; that for `CCN1CCN(Cc2ccc(NC(=O)N3Cc4cc(Oc5ccnc6[nH]ccc56)cnc4[C@H](C)C3)cc2C(F)(F)F)CC1` [XI-11] was over 6.30.
Same read-out and setting: the value for `CC[C@H]1CN(C(=O)Nc2ccc(CN3CCN(CCF)CC3)c(C(F)(F)F)c2)Cc2cc(Oc3ccnc4[nH]c(C(=O)N(C)C)cc34)cnc21` [XIV-138] was over 6.30.
In the case of `C[C@H]1c2cc(Oc3ccnc4[nH]c(C5(O)COC5)cc34)ccc2CCN1C(=O)Nc1ccc(CN2CCN(CCO)CC2)c(C(F)F)c1` [XIII-11], the negative-log IC50 (pIC50) is over 6.30.
Same read-out and setting: the value for `CC[C@H]1CN(C(=O)Nc2ccc(CN3CCN(C)CC3)c(C(F)(F)F)c2)Cc2cc(Oc3ccnc4[nH]c(C5=CCOC5)cc34)cnc21` [XIV-151] was over 6.30.
On the same count and under the same terms, the value for `CC[C@@H]1CN(C(=O)Nc2ccc(CN3CCNCC3)c(C(F)(F)F)c2)Cc2cc(Oc3ccnc4[nH]c(C#N)cc34)ccc21` [XV-16] was over 6.30; that for `CCC1CN(C(=O)Nc2ccc(CN3CCN(CC)CC3)c(C(F)(F)F)c2)Cc2cc(Nc3c(F)cnc4[nH]c(-c5cnn(C)c5)cc34)cnc21` (centres unmarked) [XVII-1] was over 6.30.
Still for that read-out and setting: the value for `CC[C@@H]1CN(C(=O)Nc2ccc(CN3CCNCC3)c(C(F)(F)F)c2)Cc2cc(Oc3ccnn4cc(C(=O)N(C)C)nc34)cnc21` [XIV-116] was 5.00 to 5.30; that for `CC[C@@H]1CN(C(=O)Nc2ccc(CN3CCN(C)CC3)c(C(F)(F)F)c2)Cc2cc(Oc3ccnc4[nH]c(C5(O)COC5)cc34)cnc21` [XIV-50] was over 6.30.
In turn, `CC[C@H]1CN(C(=O)Nc2ccc(CN3CCN(CC)CC3)c(C(F)(F)F)c2)Cc2cc(Oc3ccnc4[nH]c(C(=O)N(C)C)cc34)cnc21` [XIV-131] had a pIC50 of over 6.30.
Same read-out and setting: the value for `CN1CC[C@@H](Oc2ncc(NC(=O)N3CCc4ccc(Oc5c(F)cnc6[nH]c(-c7cnn(C)c7)cc56)cc4C3)cc2C(F)(F)F)[C@@H](O)C1` [XII-4] was over 6.30; that for `CC[C@H]1CN(C(=O)Nc2ccc(CN3CCNCC3)c(C(F)(F)F)c2)Cc2cc(Oc3ccnc4[nH]c(CO)cc34)ccc21` [XV-5] was over 6.30.
In turn, `CC[C@@H]1CN(C(=O)Nc2cnc(O[C@@H]3CCN[C@H](C)C3)c(C(F)(F)F)c2)Cc2cc(Oc3ccnc4[nH]c(C)cc34)cnc21` [XIV-69] gave a pIC50 of over 6.30.
Same read-out and setting: the value for `CCC1CN(C(=O)Nc2ccc(CN3CCN(CC)CC3)c(C(F)(F)F)c2)Cc2cc(Oc3ccnc4[nH]c(C(C)OC)cc34)cnc21` (centres unmarked) [XIV-41] was 5.00 to 5.30; that for `CCN1CCN(Cc2ccc(NC(=O)N3CCc4ncc(Oc5ccnc6[nH]ccc56)cc4[C@H]3C)cc2C(F)(F)F)CC1` [XI-4] was 5.30 to 6.30; that for `CCN1CCN(Cc2ccc(NC(=O)N3CCc4ncc(Oc5ncnc6[nH]c(C)cc56)cc4[C@H]3C)cc2C(F)(F)F)CC1` [XI-8] was 5.00 to 5.30.
Same read-out and setting: the value for `CN1CCN(Cc2ncc(NC(=O)N3CCc4ccc(Oc5c(F)cnc6[nH]c(-c7cccnc7)cc56)cc4C3)cc2C(F)(F)F)CC1` [XII-6] was over 6.30; that for `CC[C@H]1CN(C(=O)Nc2cc(C(F)(F)F)c(CN3CCN(C)CC3)cc2F)Cc2cc(Oc3ccnc4[nH]c(C(=O)N(C)C)cc34)cnc21` [XIV-137] was over 6.30; that for `CN1CCN(Cc2ccc(NC(=O)N3CCc4ccc(Nc5c(F)cnc6[nH]c(-c7cnn(C)c7)cc56)cc4C3)cc2C(F)(F)F)CC1` [compound 22, 7-[[5-Fluoro-2-(1-methylpyrazol-4-yl)-1H-pyrrolo[2,3-b]pyridin-4-yl]amino]-N-[4-[(4-methylpiperazin-1-yl)methyl]-3-(trifluoromethyl)phenyl]-3,4-dihydro-1H-isoquinoline-2-carboxamide] was over 6.30.
On the same count and under the same terms, the value for `CN1CCN(Cc2ccc(NC(=O)N3CCc4ccc(Oc5c(F)cnc6[nH]c(-c7ccncc7)cc56)cc4C3)cc2C(F)(F)F)CC1` [XII-5] was over 6.30; that for `CC[C@@H]1CN(C(=O)Nc2ccc(CN3CCNCC3)c(C(F)(F)F)c2)Cc2cc(Oc3ccnc4[nH]c(CO)cc34)cnc21` [XIV-45] was over 6.30.
As to `CCN1CCN(Cc2ccc(NC(=O)N3Cc4cc(Oc5ccnc6[nH]c(-c7cnn(C)c7)nc56)cnc4C(C)C3)cc2C(F)(F)F)CC1` (single isomer, unassigned) [XIV-30], the pIC50 was over 6.30.
